Patent publication US10526357B2, “Pharmaceutical compounds” (Rafael Pharmaceuticals, Inc., priority 2014, dated 2020)

How the values were obtained:
Format in all cases: cell-based
[1] = tested on: BXPC3 human pancreatic cancer cells; experiment: CellTiter Glo (CTG) cell viability assay, in vitro cell killing, BXPC3; conditions: 24 h treatment, 0.5% serum and 0.05% DMSO, relative to untreated control; for viability at 50 µM: BXPC-3, 50 μM, read-out: % avg live cells @ 50 μM (% Viable Cells Remaining); for viability at 100 µM: BXPC-3, 100 μM, read-out: % avg live cells @ 100 μM (% Viable Cells Remaining)
Text: (§1) The objective of this investigation was to assess the in vitro cell killing activities of analogs of lipoic acid in BXPC3 human pancreatic, H460 non small lung carcinoma, and SF539 human gliosarcoma cancer cells.
(§2) Three human tumor cell types, BXPC3 human pancreatic cancer, H460 non small lung carcinoma, and SF539 human gliosarcoma, were used in this investigation. The BXPC3 and H460 cells were originally obtained from American Type Cell Culture (ATCC). The SF539 cells were originally obtained from the NCI AIDS and Cancer Specimen Bank (ACSB). All tumor cells were maintained at 37° C. in a humidified 5% CO2 atmosphere in T75 tissue culture flasks containing 20 mL of Roswell Park Memorial Institute (RPMI) 1640 containing 2 mM L-glutamine, 10% FBS and 1% penicillin and streptomycin (100 IU/mL penicillin and 100 μg/mL streptomycin). The tumor cells were split at a ratio of 1:5 every 4-5 days by trypsinization and resuspended in fresh medium in a new flask. Cells were harvested for experiments at 70-90% confluency.
(§3) Stock solutions of each analog were prepared at a concentration of 200 and 100 mM in DMSO. Five μL of this solution was diluted in 10.0 mL of 0.5% serum containing RPMI media to give the desired 100 μM and 50 μM solutions in 0.05% DMSO.
(§4) The cancer cells were seeded at 4000 cells/well for H460 cells and 6000 cells/well for BXPC3 and SF 539 cells and incubated 24 hours. The killing activity of analogs was assayed at 50 μM and 100 μM concentrations. The tumor cells were treated for 24 hours with the test article, and after 24 hours of treatment the number of viable tumor cells was determined using the CTG assay.
(§5) The number of cells targeted for the study is 4×10^3 per well for H460 cells and 6×10^3 per well for BXPC3 and SF539 cells in 100 μL of medium. The actual number of cells were counted and seeded in the wells of a 96 well-plate. The cells were incubated for approximately 24 hours before addition of test article.
(§6) The media in the plate was removed by aspiration, and 100 μL of the test article at a final concentration of 50 μM or 100 μM was added to the cells. After exposure to the test articles for 24 hours, the number of viable cells in each well was determined and the percent of viable cells relative to control (in the absence of test article) were calculated. Additionally, a set of wells was treated with cell culture medium in the absence of cells to obtain a value for background luminescence. A separate set of cells was seeded at the same time in a clear 96-well plate and observed under the microscope at 24 hours, following addition of the test article to estimate the amount of cells present after treatment.
(§7) The number of viable cells was determined by using the CTG assay. Specifically, reagents were mixed and allowed to come to room temperature according to instructions from Promega, Inc. (Madison, Wis.). Cell plates were removed from the cell culture incubator and left on the bench for thirty minutes until they reached room temperature. 100 μL per well of CTG reagent was added with the 12-channel Eppendorf pipettor. The cells were lysed by shaking the plate for two minutes in a shaker. The cells were kept in room temperature for ten minutes to stabilize the luminescent signal. The luminescence was measured using the FLUOstar OPTIMA plate reader (BMG Labtech, Inc., Durham, N.C.).
(§8) Data from luminescence readings was copied onto EXCEL spreadsheets, and cell growth relative to untreated cells was calculated, using the following equation: […]

[2] = tested on: H460 non small lung carcinoma cells; experiment: CellTiter Glo (CTG) cell viability assay, in vitro cell killing, H460; conditions: Homo sapiens, 24 h treatment, 0.5% serum and 0.05% DMSO, relative to untreated control; for viability at 50 µM: NCI-H460, 50 μM, read-out: % avg live cells @ 50 μM (% Viable Cells Remaining); for viability at 100 µM: NCI-H460, 100 μM, read-out: % avg live cells @ 100 μM (% Viable Cells Remaining)
Text: as §1, §2, §3, §4, §5, §6, §7, §8

[3] = tested on: SF539 human gliosarcoma cells; experiment: CellTiter Glo (CTG) cell viability assay, in vitro cell killing, SF539; conditions: 24 h treatment, 0.5% serum and 0.05% DMSO, relative to untreated control; for viability at 50 µM: SF-539, 50 μM, read-out: % avg live cells @ 50 μM (% Viable Cells Remaining); for viability at 100 µM: SF-539, 100 μM, read-out: % avg live cells @ 100 μM (% Viable Cells Remaining)
Text: as §1, §2, §3, §4, §5, §6, §7, §8

| SMILES | viability at 50 µM [1] [%] | viability at 100 µM [1] [%] | viability at 50 µM [2] [%] | viability at 100 µM [2] [%] | viability at 50 µM [3] [%] | viability at 100 µM [3] [%] |
| --- | --- | --- | --- | --- | --- | --- |
| CCCCCCC(CCSCc1ccccc1)SCc1ccccc1 (stereo not drawn) [A] | 84 | 75 | 89 | 70 | 100 | 98 |
| O=S(=O)(O)CCCCC(CCSCc1ccccc1)SCc1ccccc1 (stereo not drawn) [E] | 0 | 0 | 0 | 0.3 | 0 | 0 |
| N#CCCCCC(CCSCc1ccccc1)SCc1ccccc1 (stereo not drawn) [C] | 70.9 | 36.1 | 69.8 | 27.1 | 74.9 | 23.2 |
| COCCCCCC(CCSCc1ccccc1)SCc1ccccc1 (stereo not drawn) [B] | 84 | 91 | 97 | 67 | 99 | 99 |
| O=C(O)CCOCC(CCSCc1ccccc1)SCc1ccccc1 (stereo not drawn) [G] | 99.7 | 41.7 | 102 | 37.6 | 91.6 | 30.3 |
| c1ccc(CSCCC(CCCCc2nn[nH]n2)SCc2ccccc2)cc1 (stereo not drawn) [D] | 0.3 | 3.9 | 4.1 | 2.7 | 2.1 | 0.1 |
